Experimental data: publication PMC7532674, “Synthesis and preliminary studies of ^11C-labeled tetrahydro-1,7-naphthyridine-2-carboxamides for PET imaging of metabotropic glutamate receptor 2” (Theranostics, 2020)
Like-named read-outs stand apart in the source and are kept apart here.

How the values were obtained:
human mGlu2 = molecular target: T1, human mGlu2 (Homo sapiens, UniProt Q14416); test: Human mGlu2 GIRK thallium flux assay; assay type: cell-based; conditions: HEK293 cells, EC80 glutamate, triplicate assays (14g duplicate)
T1 construct: expressed in transfected cells
Description: (§1) Cell Line Generation and Thallium Flux Assays. The general procedure for the preparation of human mGlu2 and mGlu3 was described previously, [56] with minor modifications in this work. The cloning sites were NheI/NotI for both receptors. HEK GIRK cells, generously provided by Lily Jan (University of California San Francisco, San Francisco, CA), were transfected with 24 μg of DNA using Fugene6 (Promega), stable transfectants were selected with 1 μg/mL puromycin dihydrochloride (Sigma-Aldrich, St. Louis, MO), and polyclonal human mGlu2 GIRK and mGlu3 GIRK cell lines were established. Cells were maintained following selection in 45% DMEM, 45% Ham's F12, 10% FBS, 100 units/mL penicillin/streptomycin, 20 mM HEPES, pH 7.3, 1 mM sodium pyruvate, 2 mM glutamine, 700 μg/mL G418 (Mediatech, Inc., Herndon, VA), and […] puromycin (growth media) at 37 °C in the presence of 5% CO2. All cell culture reagents were purchased from Invitrogen Corp. (Carlsbad, CA) unless otherwise noted.
(§2) Human mGlu2 and mGlu3 Thallium Flux in Vitro Assays. Potencies of these NAMs at both mGlu2 and mGlu3 were investigated by thallium flux through GIRK channels, which was disclosed in detail as well as described in our previous work. In particular, cells were plated into 384-well, black-walled, clear-bottomed poly(D-lysine_-coated plates at a density of 15 000 cells per well in 20 μL of DMEM containing 10% dialyzed FBS, 20 mM HEPES, and 100 units/mL penicillin/streptomycin (assay media). Plated cells were incubated overnight at 37 °C in the presence of 5% CO2. The next day, the medium was exchanged from the cells to assay buffer [Hanks' balanced salt solution (Invitrogen) containing 20 mM HEPES, pH 7.3] using an ELX405 microplate washer (BioTek), leaving 20 μL per well, followed by the addition of 20 μL per well of FluoZin2-AM (330 nM final concentration) indicator dye (Invitrogen; prepared as a stock in DMSO and mixed in a 1:1 ratio with Pluronic acid F-127) in assay buffer. Cells were incubated for 1 h at room temperature, and the dye was exchanged to assay buffer using an ELX405, leaving 20 μL per well. For concentration-response curve experiments, compounds were serially diluted 1:3 into 10 point concentration-response curves and were transferred to daughter plates using an Echo acoustic plate reformatter (Labcyte, Sunnyvale, CA). Test compounds were diluted to 2 times their final desired concentration in assay buffer (0.3% DMSO final concentration). Agonists were diluted in thallium buffer [125 mM sodium bicarbonate (added fresh the morning of the experiment), 1 mM magnesium sulfate, 1.8 mM calcium sulfate, 5 mM glucose, 12 mM thallium sulfate, and 10 mM HEPES, pH 7.3] at 5 times the final concentration to be assayed. Cell plates and compound plates were loaded onto a kinetic imaging plate reader (FDSS 6000 or 7000; Hamamatsu Corporation, Bridgewater, NJ). Appropriate baseline readings were taken (10 images at 1 Hz; excitation, 470 ± 20 nm; emission, 540 ± 30 nm), and test compounds were added in a 20 μL volume and incubated for approximately 1 h at room temperature before the addition of 10 μL of thallium buffer with or without an EC80 concentration of the agonist glutamate for affinity evaluation experiments or with a full concentration-response of glutamate for Schild analysis experiments. After the addition of agonist, data were collected for approximately an additional 2.5 min. Data were analyzed using Excel (Microsoft Corp, Redmond, WA). The slope of the fluorescence increase beginning 5 s after thallium/agonist addition and ending 15 s after thallium/agonist addition was calculated, corrected to vehicle and maximal agonist control slope values, and plotted using either XLfit (ID Business Solutions Ltd.) or Prism software (GraphPad Software, San Diego, CA) to generate concentration-response curves. Potencies were calculated from fits using a four-point parameter logistic equation.

human mGlu3 = molecular target: T2, human mGlu3 (Homo sapiens, UniProt Q14832); test: Human mGlu3 GIRK thallium flux assay; assay type: cell-based; conditions: HEK293 cells, triplicate assays (14g duplicate)
T2 construct: expressed in transfected cells
Description: as §1, §2

major CNS targets = test: CNS panel binding selectivity assays (NIMH PDSP)
hERG = molecular target: T3, hERG (Homo sapiens, UniProt Q12809); test: hERG safety assay; assay type: binding
T3 construct: NIMH PDSP

[1] = system: mGlu1, mGlu4, mGlu5, mGlu6 and mGlu8; test: Functional (agonist and antagonist) assays towards mGlu receptors; assay type: cell-based; conditions: mGlu1, 4, 5, 6, 8
[2] = Whole body ex vivo biodistribution in mice
Description: Each mouse was treated with a bolus injection of [^11C]14b (50 μCi / 150 μL) via the tail vein. Three mice were sacrificed by cervical dislocation at each time point (1, 5, 15, 30 and 60 min) after injection. Major organs, including heart, lungs, liver, pancreas, spleen, kidneys, stomach (including contents), small intestine (including contents), large intestine (including contents), testes, muscle, whole brain and blood samples were quickly removed and weighed. The radioactivity remained in these organs was measured by a 2480 Wizard autogamma counter (PerkinElmer, USA). The results are expressed as the percentage of injected dose per gram of wet tissue (%ID/g) or standardized uptake value (SUV). All radioactivity measurements were decay-corrected to the time point of PET tracer injection based on half-life of ^11C.

[3] = Radiometabolite analysis in plasma and brain; assay type: in vivo, Sprague-Dawley rats; conditions: SD rats
Description: Sprague-Dawley rats were sacrificed by decapitation under anesthesia at 5 and 20 min (n = 2 each time point) after the intravenous injection of [^11C]14b. Blood and whole brain samples were quickly harvested. Plasma was separated from the blood samples via 1) centrifuging at 15,000 g for 2 min at 4 °C, 2) mixing 0.5 mL of acetonitrile with 0.5 mL of supernatant, and then 3) vortexing for 15 s and centrifuging again at 15,000 g for 2 min for deproteinization. In terms of brain metabolite analysis, the removed rat brain was quickly placed on the ice, homogenized in an ice-cooled CH3CN/H2O (v/v, 1/1, 1 mL) solution, and then centrifuged at 15,000 g for 2 min at 4 °C. The supernatant was collected, whose radioactivity was >90% based on the total radioactivity in the brain homogenate. An aliquot of the supernatant (100 μL) obtained from the plasma or brain homogenate was injected into the radio-HPLC system and analyzed using a Capcell Pak UG80 C18 column (4.6 mm ID × 250 mm) in a mobile phase of CH3CN/H2O + 0.1% Et3N (v/v, 45/55) at a flow rate of 1.0 mL/min. The percentage of [^11C]14b to total radioactivity (corrected for decay) on the HPLC charts was calculated as ([peak area for [^11C]14b]/[total peak area]) × 100.

mGlu2 [4] = molecular target: T4, mGlu2 (Rattus norvegicus, UniProt P31421); test: Dynamic PET imaging in rat brain; assay type: in vivo, SD rats; parameters: from tissue; host or cells: brain of living SD rats
Description: As we previously reported, PET scans were carried out by an Inveon PET scanner (Siemens Medical Solutions, Knoxville, TN, USA). During the scan, SD rats were anesthetized by oxygen mixed with 1-2% (v/v) isoflurane and kept body temperature at […] by a commercially available circulation system (T/Pump TP401, Gaymar Industries, Orchard Park, NY). A 24-gauge catheter was inserted into the tail vein to facilitate a bolus injection. The radiotracer [^11C]14a or [^11C]14b (ca. 1 mCi / 150-200 μL) was injected into the rat via the preinstalled catheter, and the dynamic acquisition of PET signals in rat brain was started at the same time and lasted for 60 min in 3D list mode. For pretreatment studies, 14a (1 mg/kg for [^11C]14a for self-blocking study in Figure S2; 3 mg/kg for [^11C]14b for blocking study in Figure S12C) or 14b (1 mg/kg for [^11C]14b for self-blocking study in Figure S12B), formulated in 300 μL of saline containing 10% ethanol and 5% Tween 80, was injected at 30 min via the tail vein catheter prior to the injection of [^11C]14a or [^11C]14b. The dynamic emission data were reconstructed by filtered back projection using Hanning's filter with a Nyquist cutoff of 0.5 cycle/pixel into 33 frames (10 s × twelve frames, 20 s × three frames, 30 s × three frames, 60 s × three frames, 150 s × three frames, and 300 s × nine frames). The TACs of [^11C]14a or [^11C]14b were analyzed from volumes of interest in the striatum, hippocampus, cortex, thalamus, pons and cerebellum normalized to a rat brain MRI template using PMOD software (version 3.4; PMOD technology, Zurich, Switzerland). The radioactivity was decay-corrected to the injection time and expressed as the standardized uptake value (SUV) which equals to (radioactivity per milliliter of tissue per injected radioactivity) × (gram of body weight). To obtain non-displaceable binding potential (BPND), simplified reference tissue model (SRTM), [54] was carried out on the basis of kinetic analysis using PMOD software. We acquired BP-parametric images using kinetic modeling without masking. Respective TACs in receptor-rich or -poor region were loaded for production of BP-map with default setting. Representative parametric images scaled with BPND were reconstructed by PMOD software using TACs in mGlu2-enriched and reference regions. Pons was selected as the reference region for mGlu2 (the lowest and consistent brain uptake and washout kinetics between baseline and blocking conditions). It should be noted that while there is a low-level expression of mGlu2 in the pons, it is not without existence. A reference region should be a region devoid of the target, but with similar tracer transport or diffusion to the other regions of interest with expression of the target. Therefore, there are some limitations when using pons as the reference region. For example, the partial volume effect in PET likely leads to spillover of activity from nearby higher uptake regions into the pons, artificially increasing the time-activity curve in the pons.

mGlu2 [5] = molecular target: T4, mGlu2; test: In vitro autoradiography in rat brain sections; assay type: binding; parameters: from tissue; host or cells: Sprague-Dawley rat brain sections
Description: Sagittal rat brain slices were prepared into 20 μm sections with a cryostat (HM560; Carl Zeiss, Oberkochen, Germany), mounted on air plasma spray-coated glass slides, and stored at -80 °C before used for experiments. The sections were preincubated for 15 min in a glass tank containing 200 mL of Tris·HCl buffer (50 mM, pH 7.4) consisting of 2 mM of MgCl2 and 1.2 mM of CaCl2 at room temperature. After preincubation, the sections were incubated in a fresh buffer containing [^11C]14a or [^11C]14b (250 µCi in 200 mL buffer; molar activity 2.7 Ci/µmol of [^11C]14a and 2.5 Ci/µmol of [^11C]14b, respectively) in the glass tank for 30 min at room temperature. For blocking studies, non-radioactive 14a or 14b (10 μM) and QCA (10 μM) were chosen to determine the specificity of radiotracers for binding mGlu2. Six serial brain sections were used for each conditions. After incubation, brain sections were washed with cold buffer (3 × 5 min), immersed in cold distilled water, and then dried with cold air. The sections were placed in contact with imaging plates (BAS-MS2025, FUJIFILM, Tokyo, Japan). Autoradiograms were obtained and photostimulated luminescence (PSL) values in the ROIs were measured using a Bio-Imaging Analyzer System (BAS5000, FUJIFILM).

mGlu2 [6] = conditions: cited from earlier work
[7] = cited from earlier work
[8] = parameters: method as in PMID 30611634; conditions: cited from earlier work
[9] = SRTM, pons as reference, baseline

T4 sequence (P31421 19-872): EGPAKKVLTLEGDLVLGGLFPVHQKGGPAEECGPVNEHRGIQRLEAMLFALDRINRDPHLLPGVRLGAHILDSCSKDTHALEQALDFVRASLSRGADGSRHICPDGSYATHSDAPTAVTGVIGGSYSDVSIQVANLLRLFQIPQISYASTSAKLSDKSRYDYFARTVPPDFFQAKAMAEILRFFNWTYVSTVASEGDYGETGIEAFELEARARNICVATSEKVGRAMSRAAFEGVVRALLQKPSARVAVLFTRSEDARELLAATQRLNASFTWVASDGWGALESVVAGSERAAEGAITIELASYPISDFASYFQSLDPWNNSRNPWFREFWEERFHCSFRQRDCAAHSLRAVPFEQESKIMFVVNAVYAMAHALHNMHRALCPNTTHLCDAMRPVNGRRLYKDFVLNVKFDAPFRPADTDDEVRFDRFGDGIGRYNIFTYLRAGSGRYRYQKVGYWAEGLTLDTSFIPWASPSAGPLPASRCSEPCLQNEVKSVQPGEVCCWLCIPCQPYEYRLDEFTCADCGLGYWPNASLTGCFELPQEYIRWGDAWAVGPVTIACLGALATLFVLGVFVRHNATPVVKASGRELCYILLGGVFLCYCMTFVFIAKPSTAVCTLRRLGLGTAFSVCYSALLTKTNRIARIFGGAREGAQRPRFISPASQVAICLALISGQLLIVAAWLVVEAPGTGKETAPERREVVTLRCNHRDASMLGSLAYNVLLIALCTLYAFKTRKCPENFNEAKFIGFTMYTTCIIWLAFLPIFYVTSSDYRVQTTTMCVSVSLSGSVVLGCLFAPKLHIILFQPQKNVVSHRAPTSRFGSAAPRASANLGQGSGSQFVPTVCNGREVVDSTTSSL
T3 sequence (Q12809 whole entry): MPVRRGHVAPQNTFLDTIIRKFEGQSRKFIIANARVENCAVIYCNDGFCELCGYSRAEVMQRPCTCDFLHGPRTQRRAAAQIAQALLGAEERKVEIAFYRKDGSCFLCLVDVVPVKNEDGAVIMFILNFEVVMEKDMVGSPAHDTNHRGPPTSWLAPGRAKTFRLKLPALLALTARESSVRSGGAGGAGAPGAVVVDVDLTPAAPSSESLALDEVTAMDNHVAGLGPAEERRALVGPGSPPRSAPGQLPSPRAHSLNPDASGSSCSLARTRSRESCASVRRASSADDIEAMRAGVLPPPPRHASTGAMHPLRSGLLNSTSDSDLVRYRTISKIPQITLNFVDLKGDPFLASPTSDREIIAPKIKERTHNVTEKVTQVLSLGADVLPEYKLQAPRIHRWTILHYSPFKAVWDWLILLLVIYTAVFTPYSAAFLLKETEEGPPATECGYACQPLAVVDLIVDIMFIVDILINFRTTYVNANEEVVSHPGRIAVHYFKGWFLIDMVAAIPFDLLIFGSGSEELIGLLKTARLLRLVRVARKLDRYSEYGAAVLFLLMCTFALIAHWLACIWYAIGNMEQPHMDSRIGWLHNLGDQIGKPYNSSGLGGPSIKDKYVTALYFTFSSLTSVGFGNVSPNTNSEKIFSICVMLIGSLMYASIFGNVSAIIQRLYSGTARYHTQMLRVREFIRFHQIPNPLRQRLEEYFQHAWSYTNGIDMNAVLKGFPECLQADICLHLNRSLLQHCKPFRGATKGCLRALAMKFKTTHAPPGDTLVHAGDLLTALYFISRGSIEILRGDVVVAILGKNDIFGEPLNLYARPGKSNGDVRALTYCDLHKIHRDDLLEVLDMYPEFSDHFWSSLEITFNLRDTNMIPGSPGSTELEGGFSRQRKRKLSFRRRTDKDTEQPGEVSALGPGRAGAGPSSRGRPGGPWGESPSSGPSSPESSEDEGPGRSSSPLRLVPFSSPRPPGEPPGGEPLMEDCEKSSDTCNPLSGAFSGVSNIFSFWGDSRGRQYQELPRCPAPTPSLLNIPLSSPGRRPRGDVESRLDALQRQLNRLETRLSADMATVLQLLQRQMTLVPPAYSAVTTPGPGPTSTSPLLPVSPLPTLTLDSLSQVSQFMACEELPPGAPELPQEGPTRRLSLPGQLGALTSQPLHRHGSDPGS
T2 sequence (Q14832 23-879): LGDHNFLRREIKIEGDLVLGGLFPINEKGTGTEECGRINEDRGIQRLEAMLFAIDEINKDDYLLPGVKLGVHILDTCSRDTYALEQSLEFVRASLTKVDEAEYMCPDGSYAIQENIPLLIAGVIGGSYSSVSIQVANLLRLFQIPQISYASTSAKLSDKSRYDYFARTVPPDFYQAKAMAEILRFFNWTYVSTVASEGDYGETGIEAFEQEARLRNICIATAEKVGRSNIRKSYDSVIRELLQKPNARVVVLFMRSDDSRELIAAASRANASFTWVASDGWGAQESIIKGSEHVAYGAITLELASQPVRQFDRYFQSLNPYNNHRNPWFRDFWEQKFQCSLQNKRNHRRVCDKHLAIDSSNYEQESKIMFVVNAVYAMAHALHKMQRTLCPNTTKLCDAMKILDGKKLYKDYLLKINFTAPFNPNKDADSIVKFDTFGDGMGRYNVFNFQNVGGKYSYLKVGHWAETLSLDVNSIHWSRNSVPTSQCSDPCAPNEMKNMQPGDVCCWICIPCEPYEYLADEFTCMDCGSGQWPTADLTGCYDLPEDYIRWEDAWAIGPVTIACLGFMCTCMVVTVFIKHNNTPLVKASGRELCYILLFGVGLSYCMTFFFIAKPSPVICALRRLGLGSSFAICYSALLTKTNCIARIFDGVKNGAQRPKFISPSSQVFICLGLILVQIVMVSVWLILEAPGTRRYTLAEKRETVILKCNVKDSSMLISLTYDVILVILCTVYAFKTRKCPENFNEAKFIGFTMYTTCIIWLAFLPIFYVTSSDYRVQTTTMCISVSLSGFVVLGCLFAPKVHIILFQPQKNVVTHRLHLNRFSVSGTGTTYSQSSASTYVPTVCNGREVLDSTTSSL
T1 sequence (Q14416 19-872): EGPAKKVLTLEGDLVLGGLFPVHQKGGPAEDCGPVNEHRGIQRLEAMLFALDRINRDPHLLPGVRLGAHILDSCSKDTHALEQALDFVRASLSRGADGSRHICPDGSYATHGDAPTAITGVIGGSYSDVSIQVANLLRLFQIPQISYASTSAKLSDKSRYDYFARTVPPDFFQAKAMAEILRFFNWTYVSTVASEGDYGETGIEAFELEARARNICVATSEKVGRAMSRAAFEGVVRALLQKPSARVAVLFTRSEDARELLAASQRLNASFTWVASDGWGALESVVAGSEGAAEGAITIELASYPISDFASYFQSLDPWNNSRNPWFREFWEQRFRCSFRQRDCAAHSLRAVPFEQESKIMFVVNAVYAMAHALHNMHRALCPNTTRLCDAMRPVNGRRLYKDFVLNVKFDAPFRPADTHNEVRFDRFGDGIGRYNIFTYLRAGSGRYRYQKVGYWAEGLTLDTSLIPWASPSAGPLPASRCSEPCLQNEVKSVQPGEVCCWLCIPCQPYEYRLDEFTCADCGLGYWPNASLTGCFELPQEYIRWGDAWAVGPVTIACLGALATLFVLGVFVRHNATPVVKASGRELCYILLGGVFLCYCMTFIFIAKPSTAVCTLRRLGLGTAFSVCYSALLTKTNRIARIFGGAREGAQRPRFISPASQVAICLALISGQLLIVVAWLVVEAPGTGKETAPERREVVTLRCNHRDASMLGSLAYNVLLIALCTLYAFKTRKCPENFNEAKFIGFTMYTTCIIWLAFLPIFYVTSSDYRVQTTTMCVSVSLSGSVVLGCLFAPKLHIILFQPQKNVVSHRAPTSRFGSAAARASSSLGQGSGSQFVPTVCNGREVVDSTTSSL

## COc1cc(CN2CCc3c(-c4ccc(F)cc4F)cc(C(N)=O)nc3C2)ccn1 [14b, 4-(2,4-difluorophenyl)-7-((2-methoxypyridin-4-yl)methyl)-5,6,7,8-tetrahydro-1,7-naphthyridine-2-carboxamide]
Human mGlu2
  IC50: 24 nM
Human mGlu3
  IC50: > 10 µM
Major CNS targets; 10 μM compound, n = 4
  Off-target binding: No significant off-target binding (>50%)
Major CNS targets; comprehensive CNS panel, NIMH PDSP
  Response with other major brain targets: no significant response
hERG
  Activity in hERG safety assay: no activity
[1]
  Interaction with related mGlu receptor family: no substantial interaction

## [11CH3]Oc1cc(CN2CCc3c(-c4ccc(F)cc4F)cc(C(N)=O)nc3C2)ccn1 [[^11C]14b, 4-(2,4-difluorophenyl)-7-((2-(methoxy-^11C)pyridine-4-yl)methyl)-5,6,7,8-tetrahydro-1,7-naphthyridine-2-carboxamide]
[2]
  Ratio of %ID/g(1min/60min) in blood: > 3.5
[2]; 5 min post injection
  Brain uptake: ca. 3.6 %ID/g
[2]; within initial 1 min
  Radioactivity in heart, lungs, liver, pancreas, kidneys and small intestine: > 4 %ID/g
[3]; 5 min post injection
  Unchanged fraction in plasma: 77%
[3]; 20 min post injection
  Unchanged fraction in brain: > 99%
  Unchanged fraction in plasma: 21%
mGlu2 [4]; SD rats, i.v.
  Time of peak radioactivity in brain regions: ≤ 3 min
mGlu2 [4]; [9]
  BPND in cerebellum: 0.12
  BPND in striatum and cingulate cortex: 0.72
mGlu2 [4]; pretreatment with 14a, 3 mg/kg i.v. 30 min before
  Reduction of BPND: 48-90%
mGlu2 [4]; pretreatment with 14b, 1 mg/kg i.v. 30 min before
  Reduction of BPND: 41-88%
mGlu2 [5]; autoradiography, baseline
  Ratio of cerebellum to pons: 1.78
  Ratio of cerebral cortex to pons: 2.61
  Ratio of hippocampus to pons: 2.00
  Ratio of striatum to pons: 2.79
mGlu2 [5]; preincubated with unlabeled QCA, 14b or 14a at 10 µM
  Decrease of region-to-pons ratios under blocking: 45-69%

## Cc1cc(COc2cnc(C(N)=O)cc2-c2ccc(O[11CH3])cc2F)ccn1 [[^11C]MMP, 4-(2-fluoro-4-[^11C]methoxyphenyl)-5-((2-methylpyridin-4-yl)methoxy)picolinamide]
mGlu2 [6]
  IC50: 26 nM
[7]; animal PET
  Brain uptake, peak value: ~ 0.6
[8]
  LogD: 3.30

## [11CH3]Oc1ccc(-c2cc(C(N)=O)nc3cc(CN4C(=O)CCC4=O)ccc23)c(F)c1 [[^11C]QCA, 7-((2,5-Dioxopyrrolidin-1-yl)methyl)-4-(2-fluoro-4-[^11C]methoxyphenyl) quinoline-2-carboxamide]
mGlu2 [6]
  IC50: 45 nM
[7]
  Brain uptake, peak value: ~ 0.3 SUV
